Experimental data published in ChEMBL document CHEMBL1143006, “Examination of acylated 4-aminopiperidine-4-carboxylic acid residues in the phosphotyrosyl+1 position of Grb2 SH2 domain-binding tripeptides” (J Med Chem, 2007).
pKd: −log10 of the molar value.

target: Growth factor receptor-bound protein 2 (Homo sapiens, UniProt P62993); test: Binding affinity to Grb2-SH2 domain by surface plasmon resonance

SMILES	pKd
NC(=O)C[C@H](NC(=O)C1(NC(=O)[C@@H](CC(=O)O)Cc2ccc(CP(=O)(O)O)cc2)CCN(C(=O)CCCCc2ccccc2)CC1)C(=O)NCCCc1ccc2ccccc2c1	5.66
COCCOC(=O)N1CCC(NC(=O)[C@@H](CC(=O)O)Cc2ccc(CP(=O)(O)O)cc2)(C(=O)N[C@@H](CC(N)=O)C(=O)NCCCc2ccc3ccccc3c2)CC1	6.69
NC(=O)C[C@H](NC(=O)C1(NC(=O)[C@@H](CC(=O)O)Cc2ccc(CP(=O)(O)O)cc2)CCN(C(=O)NCCc2ccccc2)CC1)C(=O)NCCCc1ccc2ccccc2c1	6.57
NC(=O)C[C@H](NC(=O)C1(NC(=O)[C@@H](CC(=O)O)Cc2ccc(CP(=O)(O)O)cc2)CCN(C(=O)OCc2ccc(C(=O)O)cc2)CC1)C(=O)NCCCc1ccc2ccccc2c1	6.06
NC(=O)C[C@H](NC(=O)C1(NC(=O)[C@@H](CC(=O)O)Cc2ccc(CP(=O)(O)O)cc2)CCN(C(=O)OCc2ccccc2)CC1)C(=O)NCCCc1ccc2ccccc2c1	6.49
Cc1ccc2c(ccn2CCC(=O)N2CCC(NC(=O)[C@@H](CC(=O)O)Cc3ccc(CP(=O)(O)O)cc3)(C(=O)N[C@@H](CC(N)=O)C(=O)NCCCc3ccc4ccccc4c3)CC2)c1	6.34
NC(=O)C[C@H](NC(=O)C1(NC(=O)[C@@H](CC(=O)O)Cc2ccc(CP(=O)(O)O)cc2)CCN(S(=O)(=O)CCc2ccccc2)CC1)C(=O)NCCCc1ccc2ccccc2c1	5.67

Compounds with a higher pKd, results first:

pKd	SMILES
6.97	COC(=O)N1CCC(NC(=O)[C@@H](CC(=O)O)Cc2ccc(CP(=O)(O)O)cc2)(C(=O)N[C@@H](CC(N)=O)C(=O)NCCCc2ccc3ccccc3c2)CC1
7.44	NC(=O)C[C@H](NC(=O)C1(NC(=O)[C@@H](CC(=O)O)Cc2ccc(CP(=O)(O)O)cc2)CCN(C(=O)OCCc2ccccc2)CC1)C(=O)NCCCc1ccc2ccccc2c1
7.57	NC(=O)C[C@H](NC(=O)C1(NC(=O)[C@@H](CC(=O)O)Cc2ccc(CP(=O)(O)O)cc2)CCN(C(=O)CCCc2ccccc2)CC1)C(=O)NCCCc1ccc2ccccc2c1
